Test results reported in PubChem BioAssay AID2060901 (Molecular Pharmacology Branch, DTP, NCI, 2025).

Tested on: 422866-222-R5-J1-PDC complex spheroids viability
Assay: Anticancer human tumor 422866-222-R5-J1-PDC patient-derived pancreatic adenocarcinoma cell line growth inhibition [RAS]
Conditions: for IC50: curve of first compound; for viability, T/C: stronger effect = lower value
Method in brief: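 Tumour cells grown as complex spheroids with HUVEC endothelial cells and mesenchymal stem cells, treated with RAS pathway inhibitor combinations. Each agent spans half-log steps from near clinical Cmax, or 10 microM where Cmax is unknown.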
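Further: spheroids exposed to compounds for 7 days.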
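Wherever viability, T/C is given: 100% = DMSO vehicle control viability.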

For `CC(C)n1nc(-c2ccc3oc(N)nc3c2)c2c(N)ncnc21` + C=CC(=O)N1CCN(c2nc(OCC3CCCN3C)nc3c(F)c(-c4nc(N)cc(C)c4C(F)(F)F)c(Cl)cc23)C(C)C1, the IC50 (second compound 0.00316 µM) was under 0.316 nM, the IC50 (second compound 0.01 µM) was under 0.316 nM and the IC50 (second compound 0.0316 µM) was under 0.316 nM. For the same molecule, the IC50 (second compound 0.1 µM) was under 0.316 nM, the IC50 (second compound 0.316 µM) was under 0.316 nM and the IC50 (second compound 1 µM) was under 0.316 nM. The viability, T/C (second compound 0.00316 µM, first compound 0.000316 µM) was 34.9%, the viability, T/C (second compound 0.00316 µM, first compound 0.001 µM) was 35.1% and the viability, T/C (second compound 0.00316 µM, first compound 0.00316 µM) was 30.5%. It also gave a viability, T/C (second compound 0.00316 µM, first compound 0.01 µM) of 23.2%, a viability, T/C (second compound 0.00316 µM, first compound 0.0316 µM) of 18.3% and a viability, T/C (second compound 0.00316 µM, first compound 0.1 µM) of 14.8%. It also gave a viability, T/C (second compound 0.01 µM, first compound 0.000316 µM) of 30.3%, a viability, T/C (second compound 0.01 µM, first compound 0.001 µM) of 28.9% and a viability, T/C (second compound 0.01 µM, first compound 0.00316 µM) of 22.9%. It also gave a viability, T/C (second compound 0.01 µM, first compound 0.01 µM) of 19.9%, a viability, T/C (second compound 0.01 µM, first compound 0.0316 µM) of 14.3% and a viability, T/C (second compound 0.01 µM, first compound 0.1 µM) of 14.1%. For the same molecule, the viability, T/C (second compound 0.0316 µM, first compound 0.000316 µM) was 29.9%, the viability, T/C (second compound 0.0316 µM, first compound 0.001 µM) was 26.5% and the viability, T/C (second compound 0.0316 µM, first compound 0.00316 µM) was 23.4%. The viability, T/C (second compound 0.0316 µM, first compound 0.01 µM) was 18.2%, the viability, T/C (second compound 0.0316 µM, first compound 0.0316 µM) was 14% and the viability, T/C (second compound 0.0316 µM, first compound 0.1 µM) was 12.3%. It also gave a viability, T/C (second compound 0.1 µM, first compound 0.000316 µM) of 25.5%, a viability, T/C (second compound 0.1 µM, first compound 0.001 µM) of 22.9% and a viability, T/C (second compound 0.1 µM, first compound 0.00316 µM) of 18.1%. The viability, T/C (second compound 0.1 µM, first compound 0.01 µM) was 18.3%, the viability, T/C (second compound 0.1 µM, first compound 0.0316 µM) was 16.8% and the viability, T/C (second compound 0.1 µM, first compound 0.1 µM) was 11.3%. The viability, T/C (second compound 0.316 µM, first compound 0.000316 µM) was 25%, the viability, T/C (second compound 0.316 µM, first compound 0.001 µM) was 20.9% and the viability, T/C (second compound 0.316 µM, first compound 0.00316 µM) was 20.6%. It also gave a viability, T/C (second compound 0.316 µM, first compound 0.01 µM) of 18.1%, a viability, T/C (second compound 0.316 µM, first compound 0.0316 µM) of 13.6% and a viability, T/C (second compound 0.316 µM, first compound 0.1 µM) of 10.5%. For the same molecule, the viability, T/C (second compound 1 µM, first compound 0.000316 µM) was 21.3%, the viability, T/C (second compound 1 µM, first compound 0.001 µM) was 20.2% and the viability, T/C (second compound 1 µM, first compound 0.00316 µM) was 24.6%. It also gave a viability, T/C (second compound 1 µM, first compound 0.01 µM) of 17.2%, a viability, T/C (second compound 1 µM, first compound 0.0316 µM) of 17.3% and a viability, T/C (second compound 1 µM, first compound 0.1 µM) of 13.8%.
